Values quoted from earlier work as cited in US20050064019A1, “Impregnated, flexible, rawhide pet chews containing antimicrobially active chlorhexdine” (priority 2003, published 2005).

Key:
[1] = system: bacterial spores; settings: except at elevated temperatures
[2] = two years continuous use
[3] = system: fungal spores
[4] = rat, in vivo

[H]/N=C(\N/C(=N/[H])NCCCCCCNC(=N)NC(=N)Nc1ccc(Cl)cc1)Nc1ccc(Cl)cc1 [chlorhexidine]
Solubility in water: practically insoluble in water
Activity against bacterial spores [1]: inactive
Side effects in long term trials [2]: no systemic or serious local side effects
Activity against fungal spores [3]: inactive
Tolerance of chlorhexidine in drinking water [4]: without detectable interference with growth and reproduction
